Assay [1] is described as follows: Binding affinity to P2X receptor (unknown origin) by radioligand displacement assay. Set-up: species or system Homo sapiens.
Assay [2] concerns the target T1, 5-hydroxytryptamine receptor 1A (Rattus norvegicus, UniProt P19327).
T1 sequence (P19327 whole entry): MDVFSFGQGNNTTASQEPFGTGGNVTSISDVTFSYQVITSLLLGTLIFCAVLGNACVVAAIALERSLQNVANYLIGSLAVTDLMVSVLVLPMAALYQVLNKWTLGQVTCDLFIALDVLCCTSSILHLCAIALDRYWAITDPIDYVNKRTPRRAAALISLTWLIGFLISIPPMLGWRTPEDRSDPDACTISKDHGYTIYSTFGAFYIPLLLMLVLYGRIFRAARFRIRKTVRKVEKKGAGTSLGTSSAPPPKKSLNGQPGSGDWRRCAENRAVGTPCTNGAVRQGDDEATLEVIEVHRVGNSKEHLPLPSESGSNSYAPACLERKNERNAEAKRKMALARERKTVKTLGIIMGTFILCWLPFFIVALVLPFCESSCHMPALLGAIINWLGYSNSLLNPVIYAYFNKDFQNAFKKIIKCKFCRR
Put plainly: Displacement of [3H]8-OH-DPAT from 5-HT1A receptor in Wistar rat cerebral hippocampus membrane after 10 mins. It counts as tissue-based. Conditions: read-out: Ki(app).

The nature of assay [3]: Binding affinity to human PCP receptor by radioligand displacement assay. (In general: Displacement assays read how much labelled ligand stays bound in the presence of the test substance.)
The nature of assay [4]: Binding affinity to somatostatin receptor (unknown origin) by radioligand displacement assay. Set-up: species or system Homo sapiens.
Assay [5] can be described thus: Binding affinity to GABA-gated chloride channel (unknown origin) by radioligand displacement assay. Set-up: species or system Homo sapiens.
Assay [6] can be described thus: Binding affinity to sodium channel site 2 (unknown origin) by radioligand displacement assay. Set-up: species or system Homo sapiens.
Assay [7] deals with T2, 5-hydroxytryptamine receptor 2C (Homo sapiens, UniProt P28335).
T2 sequence (P28335 whole entry): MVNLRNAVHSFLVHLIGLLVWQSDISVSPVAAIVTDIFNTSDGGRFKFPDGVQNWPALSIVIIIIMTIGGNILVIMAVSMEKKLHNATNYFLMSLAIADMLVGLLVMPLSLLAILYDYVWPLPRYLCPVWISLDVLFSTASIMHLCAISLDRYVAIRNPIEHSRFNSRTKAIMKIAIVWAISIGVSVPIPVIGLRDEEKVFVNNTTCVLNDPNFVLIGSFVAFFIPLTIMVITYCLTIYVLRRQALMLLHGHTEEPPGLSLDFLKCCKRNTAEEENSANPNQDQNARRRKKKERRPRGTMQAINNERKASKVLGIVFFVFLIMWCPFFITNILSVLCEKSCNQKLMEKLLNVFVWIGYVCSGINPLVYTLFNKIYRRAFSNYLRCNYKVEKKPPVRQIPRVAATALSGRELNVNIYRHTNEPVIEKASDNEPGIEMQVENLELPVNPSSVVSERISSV
Put plainly: Binding affinity to human 5-HT2C receptor by radioligand displacement assay.

Assay [8] in a line: Binding affinity to P2Y receptor (unknown origin) by radioligand displacement assay. Set-up: species or system Homo sapiens.
Assay [9] concerns the target Voltage-gated L-type calcium channel (Homo sapiens, UniProt Q13936+Q13698+Q01668+O60840). Kind of assay: Binding affinity to L-Ca2+ channel verapamil site (unknown origin) by radioligand displacement assay.

Molecules are shown by their SMILES. Counter-ions that a name gives are not always drawn.

20 molecules from ChEMBL document CHEMBL2390830 (Eur J Med Chem, 2013) can be followed below.

In assay [1], `Nc1ncnc2c1ncn2[C@@H]1O[C@H](COP(=O)(O)CP(=O)(O)OP(=O)(O)O)[C@@H](O)[C@H]1O` [DIPHOSPHOMETHYLPHOSPHONIC ACID ADENOSYL ESTER] registered an IC50 of 2.1 nM and a Ki of 0.97 nM. Regarding `O=C1c2c(c(Cl)nc3ccccc23)CN1CCCCCN1CCN(c2cccc(Cl)c2Cl)CC1`, the Ki in assay [2] was 878 nM. In assay [3], `C[C@]12N[C@H](Cc3ccccc31)c1ccccc12` [DIZOCILPINE MALEATE] showed an IC50 of 4.3 nM and a Ki of 2.4 nM. `O=C1c2c(ccc3ccccc23)CN1CCCCCN1CCN(c2cccc(Cl)c2Cl)CC1`: the Ki in assay [2] came out at 490 nM.

Take `COc1ccccc1N1CCN(CCCCN2Cc3ccc4ccccc4c3C2=O)CC1`: the Ki in [2] was 13 nM. On to `O=C1c2c(c(Cl)nc3ccccc23)CN1CCCCN1CCN(c2cccc(Cl)c2Cl)CC1`, for which the Ki in assay [2] amounted to 31 nM. In [4], `C[C@H](N)C(=O)NCC(=O)N[C@H]1CSSC[C@@H](C(=O)O)NC(=O)[C@H](CO)NC(=O)[C@H]([C@@H](C)O)NC(=O)[C@H](Cc2ccccc2)NC(=O)[C@H]([C@@H](C)O)NC(=O)[C@H](CCCCN)NC(=O)[C@H](Cc2c[nH]c3ccccc23)NC(=O)[C@H](Cc2ccccc2)NC(=O)[C@H](Cc2ccccc2)NC(=O)[C@H](CC(N)=O)NC(=O)[C@H](CCCCN)NC1=O` [SOMATOSTATIN] gave an IC50 of 0.33 nM and a Ki of 0.2 nM. Turning to `C=C(C)[C@@H]1[C@H]2OC(=O)[C@@H]1[C@]1(O)C[C@H]3O[C@]34C(=O)O[C@H]2[C@]14C` [PICROTOXININ], in assay [5], the IC50 was found to be 120 nM and the Ki came to 96 nM.

Regarding `COc1ccccc1N1CCN(CCCCN2Cc3nc4ccccc4cc3C2=O)CC1`, in [2], the Ki came out at 15 nM. `COc1ccc(C(=O)O[C@H]2CC[C@@]3(C)[C@@H]4CC[C@H]5[C@]6(O)C[C@H](O)[C@@]7(O)[C@@H](CN8C[C@@H](C)CC[C@H]8[C@@]7(C)O)[C@]6(O)C[C@@]53O[C@]24O)cc1OC` [VERATRIDINE]: in assay [6], the IC50 amounted to 5200 nM and the Ki stood at 4700 nM. In the case of `COc1ccccc1N1CCN(CCCN2Cc3nc4ccccc4cc3C2=O)CC1`, the Ki in [2] amounted to 104 nM. Regarding `COc1cc(OC)c(C(=O)CCCCN2CCC3(CC2)NC(=O)NC3=O)cc1NS(=O)(=O)c1ccc(C(F)(F)F)cc1` [RS-102,221], in [7], the IC50 stood at 2.7 nM and the Ki is 0.91 nM. On to `O=C1c2c(ccc3ccccc23)CN1CCCCN1CCN(c2cccc(Cl)c2Cl)CC1`, for which the Ki in assay [2] stood at 31 nM. Consider `COc1ccccc1N1CCN(CCCCCN2Cc3nc4ccccc4cc3C2=O)CC1`, for which the Ki in assay [2] was found to be 20 nM.

In the case of `COc1ccccc1N1CCN(CCCCN2Cc3c(Cl)nc4ccccc4c3C2=O)CC1`, the Ki in assay [2] came to 17 nM. Regarding `Nc1ncnc2c1ncn2[C@H]1C[C@H](O)[C@@H](COP(O)(=S)OP(=O)(O)OP(=O)(O)O)O1` (stereo partly drawn), in assay [8], the IC50 came out at 45 nM and the Ki came out at 23 nM. On to `COc1ccc(CCN(C)CCCC(C#N)(c2cc(OC)c(OC)c(OC)c2)C(C)C)cc1OC` (stereo not drawn) [GALLOPAMIL], for which, in [9], the IC50 is 1.1 ×10⁻⁸ M and the Ki worked out at 5.4 ×10⁻⁹ M. Consider `COc1ccccc1N1CCN(CCCN2Cc3ccc4ccccc4c3C2=O)CC1`, for which the Ki in [2] came out at 46 nM. As to `O=C1c2cc3ccccc3nc2CN1CCCCN1CCN(c2cccc(Cl)c2Cl)CC1`, in [2], the Ki turned out to be 30 nM. In the case of `O=C1c2cc3ccccc3nc2CN1CCCCCN1CCN(c2cccc(Cl)c2Cl)CC1`, the Ki in assay [2] was determined as 58 nM.
